Results on one compound are retold here after US9309229B2, “Crystalline forms of 5-chloro-N2-(2-isopropoxy-5-methyl-4-piperidin-4-yl-phenyl)-N4-[2-(propane-2-sulfonyl)-phenyl]-pyrimidine-2, 4-diamine” (Novartis AG, priority 2010, dated 2016).

The term solubility denotes how much of the substance goes into solution per volume.

In brackets after ≈: the same amount, converted by molar mass.

Holding throughout (format): physicochemical
The nature of series [1]: Stability of the form in pH 1 (0.1N HCl) solution. As to conditions: pH 1 (0.1N HCl) solution over 72 hour.
Series [2] in a line: pH of 1% suspension in water.
Series [3] in a line: Hygroscopicity (moisture uptake at relative humidity).
Series [4] is described as follows: Solubility of crystalline form A.

For the compound `Cc1cc(Nc2ncc(Cl)c(Nc3ccccc3S(=O)(=O)C(C)C)n2)c(OC(C)C)cc1C1CCNCC1` [Form A, 5-Chloro-N2-(2-isopropoxy-5-methyl-4-piperidin-4-yl-phenyl)-N4-[2-(propane-2-sulfonyl)-phenyl]-pyrimidine-2,4-diamine], the “conversion of form in solution” value in series [1] is “converted to a hydrochloride salt (non-stoichiometric)”. For the same compound, the “pH of 1% suspension in water” value in series [2] is 6.86. Besides, in series [3] (84% relative humidity (RH)), the hygroscopicity entry is on record as “relatively non-hygroscopic”. Further, the moisture uptake entry in series [3] (93% RH) is “minor increase in moisture uptake”. Further, the solubility was 0.21 mg/mL (≈ 0.376 mM) in series [4] (in water); 40 mg/mL (≈ 71.7 mM) in series [4] (organic solvent or mixture, in methanol (organic solvent)); 11 mg/mL (≈ 19.7 mM) in series [4] (pH 1 solution (0.1N HCl), simulated gastric fluid, in pH 1).
